# In the supplement of paper PMC10307832:
# How the values were obtained:
# Test in all cases: relative viability (nuclei count vs DMSO), 5 days (fraction); higher = more cells survive
# HOP-62 = system: HOP-62
# Method in brief: (§1)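 Relative viability is defined as nuclei in treated wells over nuclei in vehicle wells. Duplicate plates were run and medians reported. Lung cancer cell lines in 1536-well plates were dosed by pin tool one day after seeding, with one drug or with a fixed anchor-drug dose plus five library-drug doses (not always all listed) in √10 steps, and nuclei were counted after 5 days.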
# CAL-12T = system: CAL-12T
# Method in brief: as §1
# NCI-H1755 = system: NCI-H1755
# Method in brief: as §1
# NCI-H1651 = system: NCI-H1651
# Method in brief: as §1
# 201T = system: 201T
# Method in brief: as §1
# NCI-H2087 = system: NCI-H2087
# Method in brief: as §1
# EMC-BAC-2 = system: EMC-BAC-2
# Method in brief: as §1
# LK-2 = system: LK-2
# Method in brief: as §1
# NCI-H3122 = system: NCI-H3122
# Method in brief: as §1
# NCI-H2126 = system: NCI-H2126
# Method in brief: as §1
# PC-14 = system: PC-14
# Method in brief: as §1
# LXF-289 = system: LXF-289
# Method in brief: as §1
# ABC-1 = system: ABC-1
# Method in brief: as §1
# NCI-H647 = system: NCI-H647
# Method in brief: as §1
# NCI-H1734 = system: NCI-H1734
# Method in brief: as §1
# NCI-H441 = system: NCI-H441
# Method in brief: as §1
# NCI-H322M = system: NCI-H322M
# Method in brief: as §1
# SK-MES-1 = system: SK-MES-1
# Method in brief: as §1
# H3255 = system: H3255
# Method in brief: as §1
# ChaGo-K-1 = system: ChaGo-K-1
# Method in brief: as §1
# NCI-H2009 = system: NCI-H2009
# Method in brief: as §1
# NCI-H2170 = system: NCI-H2170
# Method in brief: as §1
# NCI-H596 = system: NCI-H596
# Method in brief: as §1
smiles,measurement,setting,value
Cc1cnc(-c2cnc(NCCNc3ccc(C#N)cn3)nc2-c2ccc(Cl)cc2Cl)[nH]1 + COc1cccc2cc(-c3nc([C@H]4CC[C@H](C(=O)O)CC4)n4ncnc(N)c34)[nH]c12 [OSI-027] (partner 0.5 µM),relative viability,HOP-62; first compound 0.08 µM,0.914
same,relative viability,HOP-62; first compound 0.253 µM,0.813
same,relative viability,HOP-62; first compound 0.8 µM,0.972
same,relative viability,HOP-62; first compound 2.53 µM,0.795
same,relative viability,CAL-12T; first compound 0.08 µM,0.774
same,relative viability,CAL-12T; first compound 0.253 µM,0.59
same,relative viability,CAL-12T; first compound 0.8 µM,0.565
same,relative viability,CAL-12T; first compound 2.53 µM,0.571
same,relative viability,NCI-H1755; first compound 0.08 µM,0.81
same,relative viability,NCI-H1755; first compound 0.253 µM,0.737
same,relative viability,NCI-H1755; first compound 0.8 µM,0.726
same,relative viability,NCI-H1755; first compound 2.53 µM,0.756
same,relative viability,NCI-H1651; first compound 0.08 µM,0.797
same,relative viability,NCI-H1651; first compound 0.253 µM,0.589
same,relative viability,NCI-H1651; first compound 0.8 µM,0.71
same,relative viability,NCI-H1651; first compound 2.53 µM,0.801
same,relative viability,201T; first compound 0.08 µM,0.562
same,relative viability,201T; first compound 0.8 µM,0.819
same,relative viability,201T; first compound 2.53 µM,0.768
same,relative viability,NCI-H2087; first compound 0.08 µM,0.48
same,relative viability,NCI-H2087; first compound 0.253 µM,0.467
same,relative viability,NCI-H2087; first compound 0.8 µM,0.507
same,relative viability,NCI-H2087; first compound 2.53 µM,0.44
same,relative viability,EMC-BAC-2; first compound 0.08 µM,0.407
same,relative viability,EMC-BAC-2; first compound 0.253 µM,0.37
same,relative viability,EMC-BAC-2; first compound 0.8 µM,0.341
same,relative viability,EMC-BAC-2; first compound 2.53 µM,0.447
same,relative viability,LK-2; first compound 0.08 µM,0.204
same,relative viability,LK-2; first compound 0.253 µM,0.248
same,relative viability,LK-2; first compound 0.8 µM,0.231
same,relative viability,LK-2; first compound 2.53 µM,0.318
same,relative viability,NCI-H3122; first compound 0.08 µM,1.4
same,relative viability,NCI-H3122; first compound 0.8 µM,1.05
same,relative viability,NCI-H3122; first compound 2.53 µM,0.967
same,relative viability,NCI-H2126; first compound 0.08 µM,0.704
same,relative viability,NCI-H2126; first compound 0.253 µM,0.622
same,relative viability,NCI-H2126; first compound 0.8 µM,0.64
same,relative viability,NCI-H2126; first compound 2.53 µM,0.776
same,relative viability,PC-14; first compound 0.08 µM,1.21
same,relative viability,PC-14; first compound 0.253 µM,0.673
same,relative viability,PC-14; first compound 0.8 µM,0.76
same,relative viability,PC-14; first compound 2.53 µM,0.643
same,relative viability,LXF-289; first compound 0.08 µM,0.926
same,relative viability,LXF-289; first compound 0.253 µM,0.777
same,relative viability,LXF-289; first compound 0.8 µM,0.882
same,relative viability,LXF-289; first compound 2.53 µM,0.829
same,relative viability,ABC-1; first compound 0.08 µM,0.751
same,relative viability,ABC-1; first compound 0.253 µM,0.411
same,relative viability,ABC-1; first compound 0.8 µM,0.553
same,relative viability,ABC-1; first compound 2.53 µM,0.649
same,relative viability,NCI-H647; first compound 0.08 µM,0.752
same,relative viability,NCI-H647; first compound 0.253 µM,0.512
same,relative viability,NCI-H647; first compound 0.8 µM,0.725
same,relative viability,NCI-H647; first compound 2.53 µM,0.55
same,relative viability,NCI-H1734; first compound 0.08 µM,0.66
same,relative viability,NCI-H1734; first compound 0.253 µM,0.547
same,relative viability,NCI-H1734; first compound 0.8 µM,0.597
same,relative viability,NCI-H1734; first compound 2.53 µM,0.616
same,relative viability,NCI-H441; first compound 0.08 µM,0.739
same,relative viability,NCI-H441; first compound 0.253 µM,0.664
same,relative viability,NCI-H441; first compound 0.8 µM,0.453
same,relative viability,NCI-H441; first compound 2.53 µM,0.459
same,relative viability,NCI-H322M; first compound 0.08 µM,0.641
same,relative viability,NCI-H322M; first compound 0.253 µM,0.658
same,relative viability,NCI-H322M; first compound 0.8 µM,0.45
same,relative viability,NCI-H322M; first compound 2.53 µM,1.3
same,relative viability,SK-MES-1; first compound 0.08 µM,0.738
same,relative viability,SK-MES-1; first compound 0.253 µM,0.594
same,relative viability,SK-MES-1; first compound 0.8 µM,0.528
same,relative viability,SK-MES-1; first compound 2.53 µM,0.777
same,relative viability,H3255; first compound 0.08 µM,0.745
same,relative viability,H3255; first compound 0.253 µM,0.535
same,relative viability,H3255; first compound 0.8 µM,0.616
same,relative viability,H3255; first compound 2.53 µM,0.592
same,relative viability,ChaGo-K-1; first compound 0.08 µM,0.608
same,relative viability,ChaGo-K-1; first compound 0.253 µM,0.442
same,relative viability,ChaGo-K-1; first compound 0.8 µM,0.623
same,relative viability,ChaGo-K-1; first compound 2.53 µM,0.592
same,relative viability,NCI-H2009; first compound 0.08 µM,0.729
same,relative viability,NCI-H2009; first compound 0.253 µM,0.597
same,relative viability,NCI-H2009; first compound 0.8 µM,0.609
same,relative viability,NCI-H2009; first compound 2.53 µM,0.496
same,relative viability,NCI-H2170; first compound 0.08 µM,0.732
same,relative viability,NCI-H2170; first compound 0.253 µM,0.554
same,relative viability,NCI-H2170; first compound 0.8 µM,0.705
same,relative viability,NCI-H2170; first compound 2.53 µM,0.609
same,relative viability,NCI-H596; first compound 0.08 µM,0.846
same,relative viability,NCI-H596; first compound 0.253 µM,0.73
same,relative viability,NCI-H596; first compound 0.8 µM,0.483
same,relative viability,NCI-H596; first compound 2.53 µM,0.668
